Read-outs that look alike come from different tables or passages of the source.
Legend:
[1] = set-up: method as in PMID 28428366; settings: human hepatocytes, quantified with synthesized standards; cited from earlier work
[2] = KZR-616 and metabolites in human plasma of SLE patients; assay type: in vivo; settings: KZR-616 75 mg
Description: Following repeat-dose SC administration, there was no apparent accumulation of immunoproteasome inhibition, although cumulative constitutive proteasome inhibition in whole blood was observed, likely due to the irreversible mechanism of KZR-616 inhibition and the inability of enucleated red blood cells (the major cellular source of constitutive proteasome) to produce new proteasomes. […] As in carfilzomib, and oprozomib, KZR-616 was not stable when incubated in HLMs in the absence of NADPH, indicating non-CYP enzymes were involved in its clearance. […] In pooled plasma samples from 4 patients with systemic lupus erythematous (SLE) receiving a KZR-616 dose of 75 mg, the diol was the major metabolite, and other metabolites from oxidation, hydrolysis + dehydrogenation, oxidation + dehydrogenation double oxidation were less than 1% of the total peak area of all components (Table 2).

[3] = set-up: method as in PMID 30128949; settings: AUC0–816h time-proportional pooled plasma, single 4.1-mg oral dose [14C]-ixazomib, four patients; cited from earlier work
[4] = Bortezomib plasma pharmacokinetics in patients; assay type: in vivo, human; settings: CYP IC50 vs Cmax at 1.3 mg/m2
Description: The relationship between plasma concentration and proteasome inhibition was assessed at 1, 6, and 24 h over a 24-hour period.

20S proteasome = settings: cited from earlier work; for inhibition of 20S proteasome activity: patients, single agent, after 1-h treatment
[5] = cited from earlier work
CYP450 isozyme 1A2 = settings: human liver microsomes (~7 µg/mL); cited from earlier work
CYP450 isozyme 2C9 = settings: human liver microsomes (~7 µg/mL); cited from earlier work
CYP450 isozyme 2C19 = settings: human liver microsomes (~7 µg/mL); cited from earlier work
CYP450 isozyme 2D6 = settings: human liver microsomes (~7 µg/mL); cited from earlier work
CYP450 isozyme 3A4 = settings: human liver microsomes (~7 µg/mL); cited from earlier work
proteasome subunits = settings: summary table; cited from earlier work
[6] = summary table; cited from earlier work
[7] = summary table; cited from earlier work; remark: listed apart in the source
[8] = system: caspase-like activity of the 20S proteasome; settings: relative to β5 and LMP7; cited from earlier work
[9] = system: trypsin-like activity of the 20S proteasome; settings: relative to β5 and LMP7; cited from earlier work
proteasome = system: proteasome; set-up: method as in PMID 30117017; settings: whole blood, IV administration; cited from earlier work
[10] = patients, cited from earlier work
CYP3A4 = settings: at higher concentrations, recombinant CYP microsomes; cited from earlier work
CYP1A2 = settings: at higher concentrations, recombinant CYP microsomes; cited from earlier work
CYP2B6 = settings: at higher concentrations, recombinant CYP microsomes; cited from earlier work

For `COC[C@H](NC(=O)c1cnc(C)s1)C(=O)N[C@@H](COC)C(=O)N[C@@H](Cc1ccccc1)C(=O)[C@](C)(O)CO` [PR-176], the “percent of total oprozomib recovered as component” value [1] is given as ~ 55%.

For `COc1ccc(C(O)C(NC(=O)C(C)NC(=O)CN2CCOCC2)C(=O)NC(CC2=CCCC2)C(=O)C(C)(O)CO)cc1` (stereo not shown) [KZR-59587], the “Component in Plasma as % of Total XIC (Extracted Ion Chromatogram) Area” value (from here on “Component in Plasma as % of Total XIC”) ([2]; Subject 110-004, SLE patient) was 33.8%, the “Component in Plasma as % of Total XIC” value ([2]; Subject 112-021, SLE patient) was 45.8% and the “Component in Plasma as % of Total XIC” value ([2]; Subject 113-002, SLE patient) was 47.9%. The “Component in Plasma as % of Total XIC” value ([2]; Subject 116-012, SLE patient) was 43.8%.

For `CC(C)C[C@H](O)NC(=O)[C@H](Cc1ccccc1)NC(=O)c1cnccn1` [M2], the “% of plasma TRA” value [3] is given as 7.91%.

For `CC(C)C[C@H](NC(=O)[C@H](Cc1ccccc1)NC(=O)c1cnccn1)B(O)O` [Bortezomib], the “CYP450 IC50 values higher than Cmax” value [4] is given as 60 fold, the “variation of proteasome inhibition” value (20S proteasome; 1 h post-dose) is given as ~ 70% and the “recovery of proteasome activity” value (20S proteasome; 12 h after administration) is given as 50%. The “Time to Emax (median)” value (20S proteasome; IV administration) was 5 min, the “mean maximum inhibition (Emax)” value (20S proteasome; IV administration) was “approximately 69%” and the “Time to Emax (median)” value (20S proteasome; SC administration) was 120 min. For the same compound, the “time to complete recovery of proteasome activity” value (20S proteasome; after administration) was ≤ 72 h, the “time to full recovery of proteasome activity” value (20S proteasome; after dosing) was 36 h and the “time by which recovery of proteasome activity was observed” value (20S proteasome; assessed at 1, 6 and 24 h) was ≤ 24 h. For the same compound, the “inhibition of 20S proteasome activity” value (20S proteasome; 0.40 mg/m2) was 36%, the “inhibition of 20S proteasome activity” value (20S proteasome; 1.04 mg/m2) was 60% and the “inhibition of 20S proteasome activity” value (20S proteasome; 1.20 mg/m2) was 65%. The “inhibition of 20S proteasome activity” value (20S proteasome; 1.38 mg/m2) was 74%, the “variation of plasma concentration” value ([5]; 1 h post-dose) was ~ 800% and the “increase in bortezomib exposure” value ([5]; DDI, plus ketoconazole (CYP3A4 inhibitor), patients) was 1.4 fold. For the same compound, the IC50 (CYP450 isozyme 1A2) was > 18 µM, the IC50 (CYP450 isozyme 2C9) was > 18 µM and the IC50 (CYP450 isozyme 2C19) was > 18 µM. The IC50 (CYP450 isozyme 2D6) was > 18 µM, the IC50 (CYP450 isozyme 3A4) was > 18 µM and the “Subunit Inhibition” value (proteasome subunits) was “ß5 and LMP7”. For the same compound, the Absorption [6] was “fast”, the Clearance [6] was “fast” and the “Metabolic Pathwas” value [7] was “Hydrolases, CYPs”.

In the case of `NC(=O)[C@H](Cc1ccccc1)NC(=O)c1cnccn1` [M3], the “% of plasma TRA” value [3] is given as 10.6%.

In the case of `CC(C)C[C@@H](O)NC(=O)[C@H](Cc1ccccc1)NC(=O)c1cnccn1` [M1], the “% of plasma TRA” value [3] is listed as 18.9%.

In the case of `C[C@@](O)(CO)C(=O)[C@@H](N)Cc1ccccc1` [diol of PR-025], the “percent of total oprozomib recovered as component” value [1] is given as ~ 7%.

For `CC(C)C[C@H](NC(=O)CNC(=O)c1cc(Cl)ccc1Cl)B(O)O` [Ixazomib], the “less potency than for chymotrypsin-like activities” value [8] is listed as 10 fold, the “less potency than for chymotrypsin-like activities” value [9] is listed as 1000 fold and the “time to recovery of proteasome inhibition” value (proteasome) is listed as ≤ 24 h. The Tmax ([10]; oral) was “approximately 1 h”, the apparent clearance [10] was ~ 1.9 L/h and the contribution to metabolism (CYP3A4) was 42%. For the same compound, the contribution to metabolism (CYP1A2) was 26%, the contribution to metabolism (CYP2B6) was 16% and the “% of plasma TRA” value [3] was 54.2%. For the same compound, the “Subunit Inhibition” value (proteasome subunits) was “ß5 and LMP7”, the Absorption [6] was “fast” and the Clearance [6] was “fast”. For the same compound, the “Metabolic Pathwas” value [7] was “Hydrolases, CYPs”.

Source: paper PMC8583966, “Proteasome Inhibitors and Their Pharmacokinetics, Pharmacodynamics, and Metabolism” (International Journal of Molecular Sciences, 2021)
